In experiment [1] the test system is Esophagus. Kind of experiment: Effect on Biomphalaria glabrata esophageal rhythmicity assessed as enhanced tissue contracture at 4.0 x 10^-7 to 3 x 10^-6 M. The format is functional, tissue-based.
In experiment [2] the test system is Biomphalaria glabrata. Kind of experiment: Effect on Biomphalaria glabrata intestinal rhythmicity assessed as enhanced tissue contracture at 4.0 x 10^-7 to 3 x 10^-6 M. The format is functional, tissue-based. Particulars: Intestine.
Experiment [3] relates to Esophagus. Kind of experiment: Effect on Biomphalaria glabrata esophageal rhythmicity assessed as potentiation of tissue contracture in presence of 0.1 uM verapamil. The format is functional.
Experiment [4] relates to Biomphalaria glabrata. As to the kind of experiment: Effect on Biomphalaria glabrata intestinal rhythmicity assessed as potentiation of tissue contracture in presence of 0.1 uM verapamil. Particulars: Intestine. The format is functional, tissue-based.
The subject of experiment [5] is Esophagus. As to the kind of experiment: Effect on Biomphalaria glabrata esophageal rhythmicity assessed as potentiation of tissue contracture in presence of 1 to 100 nM cyproheptadine. The format is functional, tissue-based.
In experiment [6] the test system is Biomphalaria glabrata. Kind of experiment: Effect on Biomphalaria glabrata intestinal rhythmicity assessed as potentiation of tissue contracture in presence of 1 to 100 nM cyproheptadine. The format is functional, tissue-based. Particulars: Intestine.
Experiment [7] has as its system Esophagus. As to the kind of experiment: Effect on Biomphalaria glabrata esophageal rhythmicity assessed as potentiation of tissue contracture in presence of 0.1 mM lanthanum. The format is functional, tissue-based.
The test system of experiment [8] is Biomphalaria glabrata. Kind of experiment: Effect on Biomphalaria glabrata intestinal rhythmicity assessed as potentiation of tissue contracture in presence of 0.1 mM lanthanum. Particulars: Intestine. The format is functional, tissue-based.
The test system of experiment [9] is Esophagus. As to the kind of experiment: Effect on Biomphalaria glabrata esophageal rhythmicity assessed as potentiation of tissue contracture in presence of 1 to 100 nM methysergide. The format is functional, tissue-based.
Experiment [10] relates to Biomphalaria glabrata. Kind of experiment: Effect on Biomphalaria glabrata intestinal rhythmicity assessed as potentiation of tissue contracture in presence of 1 to 100 nM methysergide. The format is functional, tissue-based. The note with it: Intestine.
The subject of experiment [11] is Esophagus. As to the kind of experiment: Effect on Biomphalaria glabrata esophageal rhythmicity assessed as potentiation of tissue contracture in presence of 1 uM atropine. The format is functional, tissue-based.
The subject of experiment [12] is Biomphalaria glabrata. Kind of experiment: Effect on Biomphalaria glabrata intestinal rhythmicity assessed as potentiation of tissue contracture in presence of 1 uM atropine. The format is functional, tissue-based. The note with it: Intestine.
Experiment [13] has as its system Esophagus. As to the kind of experiment: Effect on Biomphalaria glabrata esophageal rhythmicity assessed as potentiation of tissue contracture in presence of 10 uM propranolol. The format is functional, tissue-based.
The subject of experiment [14] is Biomphalaria glabrata. Kind of experiment: Effect on Biomphalaria glabrata intestinal rhythmicity assessed as potentiation of tissue contracture in presence of 10 uM propranolol. The format is functional, tissue-based. Particulars: Intestine.
Experiment [15] deals with Biomphalaria glabrata. As to the kind of experiment: Inhibition of calcium uptake in Biomphalaria glabrata assessed as available calcium in test solution at 0.25 ppm after 1 week. The format is functional.
Experiment [16] concerns Biomphalaria glabrata. Kind of experiment: Inhibition of calcium uptake in Biomphalaria glabrata assessed as available calcium in test solution at 0.125 ppm after 1 week. The format is functional.
Experiment [17] deals with Biomphalaria glabrata. Kind of experiment: Inhibition of calcium uptake in Biomphalaria glabrata assessed as available calcium in test solution at 0.25 ppm after 2 weeks. The format is functional.
Experiment [18] relates to Biomphalaria glabrata. As to the kind of experiment: Inhibition of calcium uptake in Biomphalaria glabrata assessed as available calcium in test solution at 0.125 ppm after 2 weeks. The format is functional.
The subject of experiment [19] is Biomphalaria glabrata. As to the kind of experiment: Inhibition of calcium uptake in Biomphalaria glabrata assessed as available calcium in test solution at 0.25 ppm after 3 weeks. The format is functional.
For experiment [20], the system named is Biomphalaria glabrata. Kind of experiment: Inhibition of calcium uptake in Biomphalaria glabrata assessed as available calcium in test solution at 0.125 ppm after 3 weeks. The format is functional.
Experiment [21] relates to Biomphalaria glabrata. As to the kind of experiment: Inhibition of calcium uptake in Biomphalaria glabrata assessed as available calcium in test solution at 0.25 ppm after 4 weeks. The format is functional.
In experiment [22] the test system is Biomphalaria glabrata. Kind of experiment: Inhibition of calcium uptake in Biomphalaria glabrata assessed as available calcium in test solution at 0.125 ppm after 4 weeks. The format is functional.
Experiment [23] has as its system Biomphalaria glabrata. As to the kind of experiment: Inhibition of calcium uptake in Biomphalaria glabrata assessed as available calcium in test solution at 0.25 ppm after 5 weeks. The format is functional.
The test system of experiment [24] is Biomphalaria glabrata. As to the kind of experiment: Inhibition of calcium uptake in Biomphalaria glabrata assessed as available calcium in test solution at 0.125 ppm after 5 weeks. The format is functional.
Experiment [25] relates to Biomphalaria glabrata. As to the kind of experiment: Inhibition of calcium uptake in Biomphalaria glabrata assessed as available calcium in test solution at 0.25 ppm after 6 weeks. The format is functional.
For experiment [26], the system named is Biomphalaria glabrata. Kind of experiment: Inhibition of calcium uptake in Biomphalaria glabrata assessed as available calcium in test solution at 0.125 ppm after 6 weeks. The format is functional.
Experiment [27] relates to Biomphalaria glabrata. As to the kind of experiment: Inhibition of calcium uptake in Biomphalaria glabrata assessed as available calcium in test solution at 0.25 ppm after 7 weeks. The format is functional.
In experiment [28] the test system is Biomphalaria glabrata. Kind of experiment: Inhibition of calcium uptake in Biomphalaria glabrata assessed as available calcium in test solution at 0.125 ppm after 7 weeks. The format is functional.
Experiment [29] concerns Biomphalaria glabrata. As to the kind of experiment: Inhibition of calcium uptake in Biomphalaria glabrata assessed as available calcium in test solution at 0.25 ppm after 8 weeks. The format is functional.
Experiment [30] deals with Biomphalaria glabrata. Kind of experiment: Inhibition of calcium uptake in Biomphalaria glabrata assessed as available calcium in test solution at 0.125 ppm after 8 weeks. The format is functional.
For experiment [31], the system named is Biomphalaria glabrata. Kind of experiment: Inhibition of calcium uptake in Biomphalaria glabrata assessed as available calcium in test solution at 0.25 ppm after 9 weeks. The format is functional.
Experiment [32] relates to Biomphalaria glabrata. Kind of experiment: Inhibition of calcium uptake in Biomphalaria glabrata assessed as available calcium in test solution at 0.125 ppm after 9 weeks. The format is functional.
Experiment [33] has as its system Biomphalaria glabrata. Kind of experiment: Inhibition of calcium uptake in Biomphalaria glabrata assessed as available calcium in test solution at 0.25 ppm after 10 weeks. The format is functional.
The test system of experiment [34] is Biomphalaria glabrata. Kind of experiment: Inhibition of calcium uptake in Biomphalaria glabrata assessed as available calcium in test solution at 0.125 ppm after 10 weeks. The format is functional.
Experiment [35] deals with Esophagus. Kind of experiment: Effect on Biomphalaria glabrata esophageal rhythmicity assessed as increase in phasic contraction in relaxation phase at 1.92 x 10^-8 to 4 x 10^-7 M. The format is functional, tissue-based.
In experiment [36] the test system is Esophagus. As to the kind of experiment: Effect on Biomphalaria glabrata esophageal rhythmicity assessed as tissue contraction in presence of 8.5 to 320 nM cyproheptadine. The format is functional, tissue-based.
Experiment [37] deals with Esophagus. Kind of experiment: Effect on Biomphalaria glabrata esophageal rhythmicity assessed as potentiation in amplitude of contraction at 4.8 x 10^-10 M. The format is functional, tissue-based.
Experiment [38] deals with Biomphalaria glabrata. Kind of experiment: Effect on Biomphalaria glabrata intestinal rhythmicity assessed as potentiation in amplitude of contraction at 4.8 x 10^-10 M. The format is functional, tissue-based. The note with it: Intestine.
Experiment [39] deals with Esophagus. As to the kind of experiment: Effect on Biomphalaria glabrata esophageal rhythmicity assessed as increase in contraction at 1.0 x 10^-7 to 9.6 x 10^-6 M. The format is functional.
In experiment [40] the test system is Biomphalaria glabrata. Kind of experiment: Effect on Biomphalaria glabrata intestinal rhythmicity assessed as increase in contraction at 1.2 x 10^-6 to 1.9 x 10^-5 M. The format is functional, tissue-based. The note with it: Intestine.
Experiment [41] deals with Biomphalaria glabrata. As to the kind of experiment: Effect on Biomphalaria glabrata intestinal rhythmicity assessed as tissue contraction in presence of 8.5 to 320 nM cyproheptadine. The format is functional, tissue-based. Particulars: Intestine.
Experiment [42] has as its system Esophagus. As to the kind of experiment: Effect on Biomphalaria glabrata esophageal rhythmicity assessed as tissue contraction in presence of 8.5 to 320 nM methysergide. The format is functional, tissue-based.
Experiment [43] has as its system Biomphalaria glabrata. Kind of experiment: Effect on Biomphalaria glabrata intestinal rhythmicity assessed as tissue contraction in presence of 8.5 to 320 nM methysergide. The format is functional, tissue-based. The note with it: Intestine.

Calls of active or inactive are those of the source. No cut-off for these calls is given here.

On to `CC(=O)N[C@H]1[C@H](O[C@H]2CC[C@]3(C)[C@H]4CC=C5[C@H]6CC(C)(C)CC[C@]6(C(=O)O)CC[C@@]5(C)[C@]4(C)CC[C@H]3C2(C)C)O[C@H](CO)[C@@H](O)[C@@H]1O` [ARIDANIN], for which the result in experiment [1], in experiment [2], in experiment [9], in [10], in experiment [11] and in [12] was Active. The outcome in experiment [13] and in experiment [14] was Active. Further, the outcome in [3], in [4], in [5], in experiment [6], in experiment [7] and in experiment [8] was inactive. For the same compound, the Activity came out at 28.3 ppm in [15]; 28.2 ppm in experiment [16]; 19.8 ppm in experiment [17]; 19.9 ppm in experiment [18]; 24.2 ppm in experiment [19]; 22.2 ppm in experiment [20]. The Activity in [21] was 26.5 ppm; in experiment [22], 28.9 ppm; in [23], 19 ppm; in experiment [24] it was 18.7 ppm; in experiment [25] it was 52.5 ppm; in experiment [26], 51.1 ppm. In addition, the Activity in experiment [27] turned out to be 73 ppm; in experiment [28], 68.7 ppm; in experiment [29], 47.7 ppm; in [30], 49.8 ppm; in experiment [31], 70.8 ppm; in [32], 69.6 ppm. The Activity in experiment [33] turned out to be 90.4 ppm; in experiment [34] it was 89 ppm.

With `NCCc1c[nH]c2ccc(O)cc12`, the outcome in [35], in experiment [37], in experiment [38], in experiment [39] and in experiment [40] was Active. For the same compound, the result in [36], in experiment [41], in experiment [42] and in experiment [43] was inactive.

The values above are taken from ChEMBL document CHEMBL1158915, “The Effect of Aridanin Isolated from Tetrapleuratetraptera and Serotonin on the Isolated Gastrointestinal Tract Smooth Muscles of Biomphalaria glabrata and Uptake of Calcium” (1990).
